Like-named read-outs stand apart in the source and are kept apart here.
Columns and labels:
[1] = molecular target: T1, GR (Homo sapiens, UniProt P04150); assay: GR reporter gene assay in HEK293; assay type: cell-based; conditions: reporter gene assay, HEK293; agonist dexamethasone 1 nM; read-out: GR antagonistic activity (IC50)
T1 construct: expressed in transfected cells; host or cells: HEK293
T1 sequence (P04150 1-777): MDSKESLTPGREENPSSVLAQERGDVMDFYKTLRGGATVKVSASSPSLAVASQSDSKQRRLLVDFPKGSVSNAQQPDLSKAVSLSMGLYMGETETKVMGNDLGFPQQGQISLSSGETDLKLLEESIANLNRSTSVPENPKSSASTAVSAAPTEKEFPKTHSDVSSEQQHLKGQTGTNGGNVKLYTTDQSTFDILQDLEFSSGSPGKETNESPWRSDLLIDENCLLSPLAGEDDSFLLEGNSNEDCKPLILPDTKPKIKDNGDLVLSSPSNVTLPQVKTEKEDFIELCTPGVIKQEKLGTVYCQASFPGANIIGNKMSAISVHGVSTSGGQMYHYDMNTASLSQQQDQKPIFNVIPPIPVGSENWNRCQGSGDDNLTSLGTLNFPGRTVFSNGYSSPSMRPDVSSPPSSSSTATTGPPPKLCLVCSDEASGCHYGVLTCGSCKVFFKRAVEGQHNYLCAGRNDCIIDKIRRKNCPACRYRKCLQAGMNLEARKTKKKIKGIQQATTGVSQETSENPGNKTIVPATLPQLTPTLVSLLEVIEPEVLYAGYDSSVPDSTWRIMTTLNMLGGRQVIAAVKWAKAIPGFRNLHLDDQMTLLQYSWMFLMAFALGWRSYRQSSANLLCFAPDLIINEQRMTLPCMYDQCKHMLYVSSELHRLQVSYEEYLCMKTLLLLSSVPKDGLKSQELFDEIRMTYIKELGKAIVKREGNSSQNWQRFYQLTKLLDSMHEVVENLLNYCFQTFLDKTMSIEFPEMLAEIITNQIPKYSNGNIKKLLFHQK

[2] = molecular target: T2, PR (Homo sapiens, UniProt P06401); assay: T-47D alkaline phosphatase assay (PR antagonism); assay type: cell-based; conditions: compared with 7
T2 sequence (P06401 1-933): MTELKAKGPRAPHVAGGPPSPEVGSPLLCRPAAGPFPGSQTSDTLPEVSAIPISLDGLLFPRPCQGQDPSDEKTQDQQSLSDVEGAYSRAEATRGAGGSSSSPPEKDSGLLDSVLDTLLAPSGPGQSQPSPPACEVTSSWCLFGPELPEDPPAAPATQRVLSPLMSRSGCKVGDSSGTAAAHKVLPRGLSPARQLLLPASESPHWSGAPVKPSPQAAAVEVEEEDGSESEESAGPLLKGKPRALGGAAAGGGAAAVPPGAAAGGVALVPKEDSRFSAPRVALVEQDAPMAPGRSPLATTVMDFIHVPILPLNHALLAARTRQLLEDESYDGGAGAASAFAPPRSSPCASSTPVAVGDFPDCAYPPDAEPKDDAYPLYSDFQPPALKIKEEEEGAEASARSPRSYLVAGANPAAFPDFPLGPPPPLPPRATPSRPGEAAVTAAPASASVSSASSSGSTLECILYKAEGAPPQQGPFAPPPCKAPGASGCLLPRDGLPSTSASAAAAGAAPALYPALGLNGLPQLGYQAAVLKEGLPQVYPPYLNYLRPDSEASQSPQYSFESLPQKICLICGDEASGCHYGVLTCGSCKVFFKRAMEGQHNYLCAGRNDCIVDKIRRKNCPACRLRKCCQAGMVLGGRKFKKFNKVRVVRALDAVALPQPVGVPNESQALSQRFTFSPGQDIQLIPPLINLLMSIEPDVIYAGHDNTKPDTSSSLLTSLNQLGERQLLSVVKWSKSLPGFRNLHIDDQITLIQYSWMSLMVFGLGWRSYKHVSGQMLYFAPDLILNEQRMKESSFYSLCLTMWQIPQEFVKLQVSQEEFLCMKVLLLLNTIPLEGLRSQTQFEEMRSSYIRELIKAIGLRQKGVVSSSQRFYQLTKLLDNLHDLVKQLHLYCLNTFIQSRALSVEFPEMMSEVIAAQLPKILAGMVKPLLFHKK

[3] = molecular target: T3, AR (Homo sapiens, UniProt P10275); assay: AR reporter gene assay in HEK293; assay type: cell-based; conditions: for IC50: reporter gene assay, HEK293
T3 sequence (P10275 1-920): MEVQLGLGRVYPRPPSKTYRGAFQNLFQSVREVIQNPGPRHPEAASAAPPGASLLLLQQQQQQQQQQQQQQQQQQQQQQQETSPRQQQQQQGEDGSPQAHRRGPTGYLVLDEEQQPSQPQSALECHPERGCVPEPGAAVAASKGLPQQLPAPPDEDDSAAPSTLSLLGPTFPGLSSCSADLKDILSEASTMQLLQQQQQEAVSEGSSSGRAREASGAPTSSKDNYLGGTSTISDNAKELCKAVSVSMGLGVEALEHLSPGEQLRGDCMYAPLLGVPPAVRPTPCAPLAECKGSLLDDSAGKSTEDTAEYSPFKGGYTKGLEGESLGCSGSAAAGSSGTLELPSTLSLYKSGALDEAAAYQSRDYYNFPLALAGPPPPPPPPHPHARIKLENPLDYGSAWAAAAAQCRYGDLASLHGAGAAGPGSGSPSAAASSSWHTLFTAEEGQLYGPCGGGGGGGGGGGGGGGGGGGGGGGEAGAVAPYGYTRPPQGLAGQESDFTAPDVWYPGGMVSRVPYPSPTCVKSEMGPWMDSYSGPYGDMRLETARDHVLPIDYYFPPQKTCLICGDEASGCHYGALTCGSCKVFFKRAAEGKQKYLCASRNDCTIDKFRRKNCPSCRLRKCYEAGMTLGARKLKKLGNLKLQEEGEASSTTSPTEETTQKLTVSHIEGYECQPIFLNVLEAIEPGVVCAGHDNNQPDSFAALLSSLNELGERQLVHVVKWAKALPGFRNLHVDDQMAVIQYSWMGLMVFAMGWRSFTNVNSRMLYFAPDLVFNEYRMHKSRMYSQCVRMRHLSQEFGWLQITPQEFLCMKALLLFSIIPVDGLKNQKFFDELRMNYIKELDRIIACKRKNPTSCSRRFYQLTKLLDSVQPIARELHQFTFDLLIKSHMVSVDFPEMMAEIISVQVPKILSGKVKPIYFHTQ

[4] = molecular target: T4, LXRβ (Homo sapiens, UniProt P55055); assay: LXRβ reporter gene assay in HEK293; assay type: cell-based; conditions: read-out: LXRβ antagonistic activity (IC50)
T4 construct: CMX-GAL4N-hLXRβ-LBD; expressed in transfected cells; host or cells: HEK293
T4 sequence (P55055 222-460 limits assumed): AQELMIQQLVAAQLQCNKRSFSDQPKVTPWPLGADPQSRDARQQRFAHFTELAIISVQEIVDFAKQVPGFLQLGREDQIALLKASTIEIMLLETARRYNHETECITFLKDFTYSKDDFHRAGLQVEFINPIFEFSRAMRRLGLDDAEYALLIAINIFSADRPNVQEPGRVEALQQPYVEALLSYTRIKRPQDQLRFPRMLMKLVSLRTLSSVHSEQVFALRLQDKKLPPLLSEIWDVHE

[5] = molecular target: T5, LXRα (Homo sapiens, UniProt Q13133); assay: LXRα reporter gene assay in HEK293; assay type: cell-based; conditions: read-out: LXRα antagonistic activity (IC50)
T5 construct: CMX-GAL4N-hLXRα-LBD; expressed in transfected cells; host or cells: HEK293
T5 sequence (Q13133 209-447 limits assumed): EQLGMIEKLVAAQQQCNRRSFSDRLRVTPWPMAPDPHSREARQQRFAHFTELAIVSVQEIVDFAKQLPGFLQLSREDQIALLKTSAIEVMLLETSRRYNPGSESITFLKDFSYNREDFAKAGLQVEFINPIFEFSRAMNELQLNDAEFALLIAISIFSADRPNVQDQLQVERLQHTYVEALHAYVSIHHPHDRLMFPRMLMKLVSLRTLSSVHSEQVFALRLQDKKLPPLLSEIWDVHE

[6] = molecular target: T2, PR; conditions: alkaline phosphatase, T47D cells, progesterone 1 nM; read-out: PR antagonistic activity (IC50); cited from earlier work
[7] = agonist dihydrotestosterone 0.3 nM, read-out: AR antagonistic activity (IC50), AR reporter gene

| Compound | IC50 [1] | increase of PR activity [2] | selectivity for AR over LXRs [3] | selectivity for AR over PR [3] | selectivity for AR over RORs and GR [3] | increase of AR activity ([3]; compared with 7) | IC50 [3, 7] | IC50 ([3]; read-out: AR antagonistic activity IC50) | IC50 [4] | IC50 [5] | IC50 [6] |
| --- | --- | --- | --- | --- | --- | --- | --- | --- | --- | --- | --- |
| CCCCn1c(=O)c2ccccc2c2cc(C(O)(C(F)(F)F)C(F)(F)F)ccc21 [Compound 12] | 7.4 µM | 6 fold | ~50 fold | about 7.8 fold | more than 200 fold | 9 fold | 1.8 µM | 0.1 µM | 3.7 µM | 8.4 µM | – |
| CCCCn1c(=O)c2ccc(C(F)(F)F)cc2c2cc(C(O)(C(F)(F)F)C(F)(F)F)ccc21 [Compound 37] | > 20 µM | – | – | – | – | – | > 20 µM | – | 4.4 ± 0.8 µM | 7.1 µM | 4.2 µM |

— PMC6073568, “Efficient Lead Finding, Activity Enhancement and Preliminary Selectivity Control of Nuclear Receptor Ligands Bearing a Phenanthridinone Skeleton” (International Journal of Molecular Sciences, 2018)
